Source: patent US11813333B2, “Use of high molecular weight polyethylene glycol compositions to restore the efficacy of pegylated therapeutic compositions” (THE UNIVERSITY OF NORTH CAROLINA AT CHAPEL HILL, priority 2017, dated 2023)

Columns and labels:
[1] = test system: anti-PEG antibodies (APA); settings: patients with chronic refractory gout; cited from earlier work
[2] = test system: anti-PEG antibodies (APA); settings: mouse, in vivo
Procedure: Adult BALB/c mice (18-22 weeks, female, Charles River) were passively immunized with APA by the intravenous administration of mouse anti-PEG IgG1 (Silver Lake Research, CH2076, lot K0868) 24 hours prior to the intravenous administration of PLD (3 mg/kg, Doxil®, Janssen Products, LP). […] Other groups received PBS 0.5 hours prior to the administration of PLD as a control. At time points of 0.083, 3, 6, 24, 48, and 96 hours following PLD administration, mice were anesthetized using ketamine (100 mg/kg, i.p.) and medetomidine hydrochloride (1 mg/kg, i.p.), then sacrificed via cardiac puncture (into sodium heparin vacutainers) and cervical dislocation. The blood, liver, spleen, and lungs were collected for doxorubicin quantification.
Briefly, blood samples were collected in sodium heparin tubes at 0.083, 3, 6, 24, 48 and 96 hours after the administration of PLD. Blood was centrifuged at 1,500 g for 5 minutes to obtain plasma. Encapsulated and released doxorubicin in plasma were separated using solid phase separation. Tissues of interest were flash frozen in liquid nitrogen and stored at −80° C. until processing. Upon processing, tissues were thawed, weighed, and diluted in a 1:3 ratio with phosphate buffered saline prior to homogenizing with a Precellys 24 bead mill homogenizer (Omni International Inc, Kennesaw, GA). Samples were further processed by addition of 800 μL extraction solution (acetonitrile with 100 ng/mL daunorubicin internal standard) to 200 μL of plasma or tissue homogenate. The samples were vortexed for 10 minutes and centrifuged at 10,000 g for 10 minutes at 4° C. […] The samples were then vortexed, transferred to autosampler vials, and analyzed by high-performance liquid chromatography with fluorescence detection (HPLC-FL) set to excitation wavelength 490 nm/emission wavelength 590 nm. […] Samples that returned a concentration above the quantitative limit were diluted to fall within the quantitative range and reinjected.

Row | Substance | fraction of patients that developed APA leading to rapid clearance of the enzyme from the blood [1] | time by which the vast majority of the PLD is found in the liver (delayed hepatic accumulation) [2] [h]
1 | pegloticase | roughly one-third | –
2 | polyethylene glycol [PEG 10 kDa] | – | 3
3 | polyethylene glycol [PEG 20 kDa] | – | 24
4 | polyethylene glycol [PEG 40 kDa] | – | 96
